From patent publication US20220347182A1, “METHODS AND COMPOSITIONS FOR THE TREATMENT OF OSTEOARTHRITIS” (The Board of Trustees of the Leland Stanford Junior …, priority 2019, published 2022)
“Also recorded” adds a separate entry of the source.

How the values were obtained:
OA chondrocytes [1] = assay: Human 62-plex Luminex array of secretome after drug treatment; type: cell-based; details: for CCL2 secretion / CCL7 secretion: 48 hours vs DMSO/control, 50 μM JNK Inhibitor II, 25 μM BMS-345541, 50 μM SB 431542, 0.5 mM IBMX, combination compared to JNK inhibitor alone
Experimental: Next, experiments were conducted to explore the functional effects of inhibiting these newly identified Inf-A cells in OA cartilage by capitalizing on their distinct signalling through JNK. Chondrocytes derived from 6 patients were cultured for 48-hours in the presence of JNK II inhibitor and the secretome was analyzed via 62 antibody human Luminex panels. Across all six patients, a variety of cytokines were altered, many trending toward significance. […] CCL2 and 7 are well-established chemoattractants for monocytes and are known to be altered during OA progression (see for example Ref 28). Genetic deletions of CCL2 and its receptor CCR2 prevent the development of surgical OA, further underscoring the importance of CCL2 as a key modulator in pathology (see for example Ref. 28). […] As a complementary approach, SMAD1/5, the other exclusive signaling pathway of the Inf-A cells was inhibited using an ALK inhibitor. ALK receptors are the most common upstream target of SMAD1/5 signaling in OA (See for example Ref. 31).
(§1) OA cells were seeded at high density in 12-well plates and treated with control (DMSO) or drug next day for 48 hours. Drug doses were determined based on prior literature and validation-: 0.5 mM 3-Isobutyl-1-methylxanthine (IBMX, Sigma 15879) (See for example Ref. 33), 50 μM JNK Inhibitor II (Calbiochem 420119), 25 μM NFK-B inhibitor BMS-345541 (Sigma B9935) (See for example Ref 30, 43), 50 μM Alk inhibitor, SB 431542 hydrate (Sigma S4317 (See for example Ref. 44, 45) and 25 uM Kartogenin (Sigma SML0370) (See for example Ref. 24-26) were used with appropriate dilution in DMSO.
Cell culture supernatants were collected and spun down at 10,000×g for 10 min at 4° C. to remove any cells or cell debris and then snap frozen in liquid nitrogen, before performing the assay. This assay was performed in the Human Immune Monitoring Center at Stanford University. Human 62-plex kits were purchased from eBiosciences/Affymetrix and used according to the manufacturer's recommendations with modifications as described below. Briefly, beads were added to a 96-well plate and washed in a Biotek ELx405 washer. Undiluted samples were added to the plate containing the mixed antibody-linked beads and incubated at room temperature for 1 hour followed by overnight incubation at 4° C. with shaking. Cold and room temperature incubation steps were performed on an orbital shaker at 500-600 rpm. Following the overnight incubation plates were washed in a Biotek ELx405 washer and then biotinylated detection antibody added for 75 minutes at room temperature with shaking. Plate was washed as above and streptavidin-PE was added. After incubation for 30 minutes at room temperature wash was performed as above and reading buffer was added to the wells. Each sample was measured in duplicate. Plates were read using a Luminex 200 instrument with a lower bound of 50 beads per sample per cytokine. Custom assay Control beads by Radix Biosolutions were added to all wells.

OA chondrocytes [2] = assay: RT-qPCR gene expression after drug treatment; type: cell-based, human; details: 48 hours; for MMP13 expression: OA patients n=3
Experimental: Cells for RNA extraction were collected in RNA lysis buffer (Zymo Research) and processed according to the manufacturer's specifications for the Quick-RNA MicroPrep Kit (Zymo Research, R1051), including the optional DNAse1 digestion. RNA quality and quantity was measured using the Nanodrop 1000 Spectrophotometer. All samples had A260/280 scores between 1.6-1.8.
[…] of RNA from each sample was reversed transcribed into cDNA using the High Capacity cDNA Reverse Transcription Kit (Applied Biosystems, 4368813). Quantitative PCR was performed using TaqMan gene-specific expression assays, FAM-labeled, for metalloproteinase 3, 9, a 13 (Hs00233962_m1, Hs00957562_m1, Hs00233992_m1), with a universal mastermix (Applied Biosystems, 4369016). Gene expression levels were normalized with FAM-labeled Actin-beta (Hs01060665_g1).
For Tfam, CD24 and PGC1a, we utilized the SybrGreen mastermix (Applied Biosystems, A25742) according to manufacturer's specifications. Primer sequences: Tfam_F: 5′-GCTCAGAACCCAGATGCA AAA-3′, Tfam_R 5′-AGGAAGTTCCCTCCAACGC-3′, PGCla_F: 5′-[…]-3′, PGC1a_R: 5′-[…]-3′, CD24_F: 5′-TACCCACGCAGATTTATT-3′, CD24_R: 5′-AGA GTGAGACCACGAAGA-3′, Actin_F 5′-CACCAACTGGGACGACAT-3′, Actin_R: 5′-ACAGCCTGGATAGCAACG-3′. qPCR reactions included a 2-minute incubation at 50° C. to inactivate previous amplicons with uracil-DNA glycosylase, followed by a 10-minute incubation at 95° C. to activate the Taq polymerase. The amplification cycle, consisting of 15 seconds at 95° C., and 1 minute at 60° C., was repeated 40 times. The relative expression levels were determined using the ΔCt method (CT gene of interest−CT internal control−Actin) and relative gene expression is calculated using 2−ΔCt method and plotted.
as §1

[3] = test system: post-traumatic osteoarthritis (PTOA); assay: Mouse model of post-traumatic osteoarthritis (tibial loading), OARSI histological scoring; type: in vivo, wildtype C57BL mice; details: 50 uM, 8 weeks post-injury vs control; for OA progression: intra-articular, 2 injections every week starting 1 week after tibial loading
Experimental: Using a mouse model of post-traumatic osteoarthritis (PTOA) wherein mechanical loading can lead to onset and progression of OA (Christiansen et al. 2012), Applicant tested if early intervention with small molecule modulators of the Inf A populations can modulate the onset or progression of OA in vivo. For these experiments, wildtype C57BL mice were injected with (a) control or (b) Inf-A inhibitor (JNK II inhibitor) OA initiation to test whether these putative modulations can be therapeutic in OA. The injections were given starting 1 week after tibial loading and at a frequency of 2 injections every week to ensure their efficacy. For histological assessment, the OARSI scoring criteria was utilized to grade the OA severity with the score of 0-6 grades ranging from intact cartilage to erosion and deformation of cartilage/bone. For the quantification of OA development in each control or injured joint, 6 sagittal sections (4 μm thickness) spaced 50 μm are typically cut and stained in order to cover the whole joint compartment. A maximum score for the overall section (both tibial plateau and femoral condyle) is obtained after assigning the most severe damage score for each section and averaging the scores; a summit score (sum of the calculated scores) is calculated as a measure of the prevalent damage over the whole joint.

OA chondrocytes [4] = assay: cyTOF profiling of CPC cluster abundance after kartogenin treatment; type: cell-based, human; details: 25 uM kartogenin vs DMSO, 48 hours
Source text: Experiments were undertaken to understand how the application of a pro-regenerative drug would affect this CPC landscape, specifically the pro-inflammatory CPCs four in Group C. Kartogenin (KGN) was originally identified in a screen to expand mesenchymal stem cells and has since been shown in multiple studies to be a pro-chondrogenic modulator of OA progression in animal models (See for example Ref. […]). One patient from Group C (OA15) and one patient from Group A (OA5) were utilized. One patient from Group A (OA5) and one patient from Group C (OA15) were treated with kartogenin or control (DMSO) for 48 hours, fixed, stained and profiled by cyTOF as previously described. […] The treatment additionally expanded low-inflammation clusters 7 and 11 in the Group A patient, where they already appeared overrepresented, while these clusters were not expanded in the Group C patient. Furthermore, kartogenin reduced pro-inflammtory clusters 9, 12 in both the patients, though to a greater degree in the Group C patient enriched in those subtypes (FIG. 3G). Overall, kartogenin appears to expand normal-like and low inflammation CPC clusters (2, 10, 7 and 11) while reducing the high inflammation CPC III clusters (12 and 16).
as §1
OA cells were cultured to confluence in 10 cm dishes. On the collection day, cells were stained with 25 μM Idu for 15 min at 37° C. in the cell incubator, then with 0.5 μM cisplatin for 5 min at RT. Cells were then lifted with 0.25% Trypsin-EDTA (Gibco) for 15 min at 37° C. Trypsin was quenched using media containing 10% FBS and cell were washed 3 times with PBS to remove any trace amounts of trypsin. Cells were fixed after straining through a […] strainer in 1.6% PFA for 10 min at RT. Cells were washed 4 times with cells staining media, counted and frozen in 1 million cell aliquots in a small amount of cell staining media at −80° C. To stain, cells were thawed on ice and barcoded using the Cell-ID 20-plex Pd Barcoding Kit (Fluidigm) according to the manufacturer's specifications. After barcoding, cells were labeled as previously described (See for example Ref 13). Briefly, all barcoded samples were combined into one FACs tube, and washed 3× with cell staining media and stained with the cell surface antibodies for 30 minutes at RT according to the concentrations in Table 2. Cells were then was 2× with cell staining media and permeabilized with 1 mL of cold methanol added dropwise with continuous gentle vortexing. Cells were incubated for 10 min on ice, with gentle vortexing every 2-3 minutes to avoid cell clumping, then washed in cell staining media and stained with the intracellular antibodies for 30 minutes at RT. After 2× washed with cell staining media, cells were resuspended in 1.6% PFA with Cell-ID Intercalator-Ir (Fluidigm) used at 1:2000. Cells were measured using the cyTOF 2 (Fluidigm) and injected using the supersampler. […]

[5] = 48 hours vs DMSO, 50 μM SB 431542, combination compared to JNK inhibition alone

Q: `NC(=O)c1ccc(-c2nc(-c3ccc4c(c3)OCO4)c(-c3ccccn3)[nH]2)cc1` [ALK inhibitor, SB 431542 hydrate] was tested. Which CCL2 secretion (OA chondrocytes [1]) did it give?
A: decrease

Q: And the CCL7 secretion (OA chondrocytes [1])?
A: decrease

Q: What about the CXCL1 secretion (OA chondrocytes [1]; [5]) of the same molecule?
A: decrease

Q: And the CXCL5 secretion (OA chondrocytes [1]; [5])?
A: decrease

Q: Which CCL2 secretion (OA chondrocytes [1]) does the source give for `Cc1ccc2nc(NCCN)c3ncc(C)n3c2c1` [BMS-345541] here?
A: did not affect

Q: What about the CCL7 secretion (OA chondrocytes [1]) of the same molecule?
A: did not affect

Q: Which results are given for `CC(C)Cn1c(=O)n(C)c(=O)c2[nH]cnc21` [IBMX, 3-Isobutyl-1-methylxanthine]?
A: upregulation of CD24 expression (OA chondrocytes [2]; 0.5 mM IBMX): 2-4 fold; MMP13 expression (OA chondrocytes [2]): no consistent effect; also recorded: No significant differences; Pgc1a gene expression (OA chondrocytes [2]; IBMX): increased; Tfam gene expression (OA chondrocytes [2]; IBMX): increased; CCL2 secretion (OA chondrocytes [1]): modest downregulation; CCL7 secretion (OA chondrocytes [1]): modest downregulation

Q: For `O=C1c2ccccc2-c2n[nH]c3cccc1c23` [JNK II inhibitor], which MMP gene expression (OA chondrocytes [2]) is on record?
A: remained unaffected

Q: And the MMP13 expression (OA chondrocytes [2])?
A: No significant differences

Q: What about the CCL2 secretion (OA chondrocytes [1]) of the same molecule?
A: significant decrease

Q: What about the CCL7 secretion (OA chondrocytes [1]) of the same molecule?
A: significant decrease

Q: What about the CCL2 secretion (OA chondrocytes [1]; listed as INK inhibitor) of the same molecule?
A: overall reduction

Q: And the CCL7 secretion (OA chondrocytes [1]; listed as INK inhibitor)?
A: overall reduction

Q: And the “max score (OARSI)” value [3]?
A: reduced

Q: And the “summit score (OARSI)” value [3]?
A: reduced

Q: And the OA progression [3]?
A: slowed

Q: What about the OA progression ([3]; listed as JNKII inhibitor) of the same molecule?
A: slows down progression

Q: Which “abundance of low-inflammation clusters 7 and 11” value (OA chondrocytes [4]; Group A patient (OA5)) does the source give for `O=C(O)c1ccccc1C(=O)Nc1ccc(-c2ccccc2)cc1` [Kartogenin] here?
A: expanded

Q: What about the “abundance of low-inflammation clusters 7 and 11” value (OA chondrocytes [4]; Group C patient (OA15)) of the same molecule?
A: not expanded

Q: And the “abundance of pro-inflammatory clusters 9, 12” value (OA chondrocytes [4]; both patients)?
A: reduced

Q: What about the “abundance of cluster 2 (CPC I) and cluster 10 (CPC II)” value (OA chondrocytes [4]; both patients (OA5 Group A, OA15 Group C)) of the same molecule?
A: selectively expanded

Q: And the “abundance of high inflammation CPC III clusters (12 and 16)” value (OA chondrocytes [4]; overall summary)?
A: reducing
